This passage reports TGI results from PubChem BioAssay (NCI).

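Test compounds were applied to cells in 96-well plates for 48 hours at 5 doses. TGI marks complete inhibition of growth.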 Where only a bound is given, the exact number is not on record here.

What all share (assay): DTP human tumour cell line panel, 48 h
The test system of experiment [1] is NCI-H23 lung.
For experiment [2], the system named is A549 NSCLC.
The test system of experiment [3] is MALME-3M melanoma.
Experiment [4] deals with DU-145 prostate.

What is called TGI is the concentration giving total growth inhibition. For the molecule `CCO/C(O)=C(/C(=N)N1CCCC1)C(=O)Nc1ccc(Cl)cc1`, the TGI in experiment [1], in experiment [2], in experiment [3] and in experiment [4] was over 100 µM in each case.
`CCOC(=O)c1c(-c2ccccc2)[nH]c2ccc(Cl)cc2c1=O`: the concentration for total growth inhibition (TGI) in experiment [1], in experiment [2], in experiment [3] and in experiment [4] was over 100 µM each time.
With `CCOC(=O)/C(=C\NC(C)(C)C)c1nc2ccccc2o1`, the total growth inhibition concentration (TGI) was over 100 µM in experiment [1], over 100 µM in experiment [2], 85.6 µM in experiment [3] and over 100 µM in experiment [4].
On to `CCn1c(SCC(=O)NNC(=S)Nc2ccc(F)cc2)nc2ccccc2c1=O`, for which the TGI in experiment [1], in experiment [2], in experiment [3] and in experiment [4] was over 100 µM in each case.
On to `CN1CCN(C(=S)N(C)C(=O)c2cccs2)CC1`, for which the concentration for total growth inhibition (TGI) in experiment [1], in experiment [2], in experiment [3] and in experiment [4] was over 100 µM in each case.
In the case of `COc1ccc(-n2cnc3c(NC(C)(C)C(=O)O)ncnc32)cc1`, the TGI in experiment [1], in experiment [2] and in experiment [4] was over 100 µM in each case.
Take `C[C@@H]1OC2(O)[C@@H]3CCCN3C(=O)N(Cc3ccccc3)N2C1=O` (some centres not stated): the concentration for total growth inhibition (TGI) in experiment [1], in experiment [2], in experiment [3] and in experiment [4] was over 100 µM in each case.
On to `COC(=O)C(Cc1c[nH]c2ccccc12)NP(=O)(O)OCC1OC(n2cc(F)c(=O)[nH]c2=O)CC1O` (configuration not stated), for which the concentration for total growth inhibition (TGI) in experiment [1], in experiment [2], in experiment [3] and in experiment [4] was over 100 µM in each case.
With `CC(C)=CCC[C@@H](C)C1=C(Nc2ccccc2)C(O)=C(C)C(=O)C1=O`, the concentration for total growth inhibition (TGI) in experiment [1] was 12.9 µM; in experiment [2] it was 13.5 µM; in experiment [3], 19.9 µM; in experiment [4] it was 28.2 µM.
With `COC(=O)c1c(C(=O)OC)c(C(c2ccccc2)c2ccccc2)n(-c2ccccc2)c1Cl`, the TGI in experiment [1], in experiment [2], in experiment [3] and in experiment [4] was over 10 µM throughout.
With `O=C(CCCN1CC=C(n2c(=O)[nH]c3ccccc32)CC1)c1cccs1`, the total growth inhibition concentration (TGI) in experiment [1], in experiment [2], in experiment [3] and in experiment [4] was over 100 µM each time.
Take `O=c1[nH]n(Cc2ccccc2CCl)c2ccc([N+](=O)[O-])cc12`: the TGI in experiment [1], in experiment [2], in experiment [3] and in experiment [4] was over 100 µM each time.
Turning to `N#CC1=C(N2CCOCC2)CCC1`, the TGI in experiment [1], in experiment [2], in experiment [3] and in experiment [4] was over 100 µM each time.
Regarding `O=C1NC(Cc2c[nH]c3ccccc23)C(=O)N2C(c3ccccc3)c3[nH]c4ccccc4c3C[C@@H]12` (some centres not stated), the TGI is 57.1 µM in experiment [1], over 100 µM in experiment [2], 33.7 µM in experiment [3] and over 100 µM in experiment [4].
With `CC(C)C(Cl)CC/C(CBr)=C(\Cl)CCl` (configuration not stated), the TGI turned out to be 8.65 µM in experiment [1], 36.1 µM in experiment [2], 19.6 µM in experiment [3] and 26.3 µM in experiment [4].
In the same order, the values of `C/C(=C\COP(=O)(O)OP(=O)(O)O)CC/C=C(\C)CNc1ccc([N+](=O)[O-])cc1` are over 100 µM, over 100 µM, over 100 µM and over 100 µM.
For `O=C(/C=C/c1cccs1)c1ccc(C(=O)/C=C/c2cccs2)cc1` the same measures were over 100 µM, over 100 µM, over 100 µM and over 100 µM.
For `C/C(=C/CNc1ncnc2c1ncn2CCC#N)CO`, the concentration for total growth inhibition (TGI) in experiment [1], in experiment [2], in experiment [3] and in experiment [4] was over 100 µM in each case.
For the molecule `COc1ccc2c(c1)/C(=C\c1cccc(/C=C3/C(=O)Nc4ccc(OC)cc43)n1)C(=O)N2`, the concentration for total growth inhibition (TGI) in experiment [1] is 2.6 µM; in experiment [2], over 100 µM; in experiment [3] it was 5.51 µM; in experiment [4], 9.73 µM.
With `O=C(/C=C\c1ccccc1-c1ccccc1)c1ccccc1`, the values for the TGI in experiment [1], in experiment [2] and in experiment [4] were over 100 µM, 91.9 µM and over 100 µM, respectively.
As to `NC(=O)NC(=O)c1ccc(NC(=O)CBr)cc1`, the TGI in experiment [1] was 4.59 µM; in experiment [2], over 32.6 µM; in experiment [3], 3.96 µM; in experiment [4], 6.92 µM.
`COc1cc(/C=C2\N=C(c3ccccc3)N(/N=C/c3cc4cc(C)ccc4nc3Cl)C2=O)cc(OC)c1OC`: the total growth inhibition concentration (TGI) in experiment [2] is over 100 µM; in experiment [4] it was 80.6 µM.
`C=C(Cl)C(Br)(CBr)CCC(Br)C(C)(C)Br` (configuration not stated): the total growth inhibition concentration (TGI) in experiment [1], in experiment [2] and in experiment [4] was over 10 µM throughout.
In the case of `Cc1cc2nc3c(C#N)c(-c4ccccc4)cc(Nc4ccc(F)cc4)n3c2cc1C`, the TGI in experiment [1] stood at 47.2 µM; in experiment [3], 70 µM.
`Cc1ccc(S(=O)(=O)n2cnc(CC(NC(=O)C3CCC(=O)N3C(=O)OCc3ccccc3)C(=O)N3CCCC3C(=O)NN)c2)cc1` (configuration not stated): the TGI in experiment [1], in experiment [2] and in experiment [3] was over 100 µM each time.
As to `COC(=O)c1cc(C#N)[nH]c1-c1cccs1`, the TGI in experiment [1], in experiment [2] and in experiment [4] was over 100 µM in each case.
`CNC(=S)NNC1=NCCCCN1`: the TGI in experiment [1], in experiment [2] and in experiment [3] was over 100 µM in each case.
For `CCOC(=O)c1c(NC(=O)c2ccc(OC)cc2)sc2c1CCCC2`, the TGI in experiment [1], in experiment [2] and in experiment [4] was over 100 µM throughout.
For the molecule `NC(=S)N/N=C(/C(=O)Nc1nc2ccc([N+](=O)[O-])cc2s1)C1C(=O)NC(=S)NC1=O`, the TGI in experiment [1], in experiment [2] and in experiment [4] was over 100 µM each time.
Regarding `C=CC(c1ccccc1)C1(O)c2cccc(O)c2C(=O)c2c(O)cccc21` (configuration not stated), the TGI in experiment [1] worked out at 30.8 µM; in experiment [2], 32.9 µM; in experiment [4], 28.8 µM.
